Results from patent publication US4283408A, “Guanidinothiazole compounds, process for preparation and gastric inhibiting compositions containing them” (Yamanouchi Pharmaceutical Co., Ltd., priority 1979, dated 1981).

How the values were obtained:
[1] = system: Gastric acid secretion; test: Gastric acid secretion in anesthetized dogs (histamine-induced); format: in vivo, Mongrel dogs; details: Canis lupus familiaris, iv, read-out: (A) Gastric secretion ED50
Method: (i) Gastric acid secretion in anesthetized dogs: Mongrel dogs weighing 8 to 15 Kg were deprived of food for 24 hr and anesthetized intravenously with pentobarbital (30 mg/Kg). […] The gastric juice was collected from the gastric cannula by gravity drainage every 15 min. Test compounds were given intravenously after gastric secretion induced by a continuous intravenous infusion of histamine (160 μg/Kg-hr) reached a steady state.

[2] = Acute toxicity in mice; details: mouse, in vivo, iv; male ICR mice; i.v.; 7 days observation; up and down method; base; read-out: (C) LD50 in mice
Method: (iii) Acute toxicity in mice
Drugs were injected intravenously in male ICR mice weighing about 35 g at a rate of 0.1 ml/10 sec and the animals were kept under observation for 7 days. LD50 values were determined by up and down method using 10 animals. The data are shown in Table I, under column entitled (C).

[3] = system: Gastric acid secretion; test: Gastric acid secretion in pylorus-ligated rats; format: in vivo, Male Wister rats; details: Rattus norvegicus, read-out: (B) Pylorus-ligated rats ED50
Method: (ii) Gastric acid secretion in pylorus-ligated rats
Male Wister rats weighing about 200 g were deprived of food for 24 hr but allowed free access to water prior to the experiments in individual cages. […] Test compounds were intraduodenally given immediately after the ligation of pylorus. The animals were sacrificed 4 hr after drug administration and gastric contents were collected. […] The percent inhibition of gastric secretion by each dose of drugs was calculated from the acid outputs of control and of treated groups. ED50 values were determined by the probit method.

[4] = system: H2 -receptor; details: isolated guinea pig atrium; effects mediated by the H2 -receptor; Ash and Schild, Black et al.; cited from earlier work
[5] = anesthetized dogs, i.v., histamine infusion 160 μg/Kg-hr, dose producing 50% inhibition of the acid output, base
[6] = pylorus-ligated rats, intraduodenal, 4 hr, probit method, base

Structure (SMILES) | ED50 [1] | LD50 at 168 h [2] | ED50 ([3]; 4 h) | ED50 [1, 5] | ED50 [3, 6] | inhibition of histamine effects on gastric acid secretion and heart rate [4]
CN/C(=N/CCSCc1nc[nH]c1C)NC#N [Compound A, Ncyano-Nmethyl-N{2[(4methyl-5-imidazolyl)methylthio]ethyl}guanidine] | 0.333 ± 0.042 mg/kg | 152 mg/kg | 42.6 mg/kg |  |  | 
N#CN=C(N)NCCSCc1csc(NC(=N)N)n1 [Compound B, 2guanidino-4-[2(2-cyanoguanidino)ethylthiomethyl]thiazole] |  | 94.6 mg/kg |  | 0.0352 ± 0.0022 mg/kg | 49.3 mg/kg | 
NC(N)=Nc1nc(CSCCC(N)=NS(N)(=O)=O)cs1 [Example 1, N-sulfamoyl-3-[(2-guanidinothiazol-4-yl)methylthio]propionamidine] |  | 244 mg/kg |  | 0.0087 ± 0.0005 mg/kg | 0.87 mg/kg | 
CS(=O)(=O)NC(=N)CCSCc1csc(NC(=N)N)n1 [Example 2, N-methanesulfonyl-3-[(2-guanidinothiazol-4-yl)-methylthio]propionamidine] |  | 152 mg/kg |  | 0.0191 ± 0.0026 mg/kg | 8.9 mg/kg | 
COc1ccc(CN(CCN(C)C)c2ccccn2)cc1 [mepyramine] |  |  |  |  |  | not inhibited
C/N=C(\S)NCCSCc1[nH]cnc1C [metiamide] |  |  |  |  |  | antagonized
